Measured values from ChEMBL document CHEMBL1151807, “Myxotyrosides A and B, Unusual rhamnosides from Myxococcus sp” (J Nat Prod, 2009).
The source made the active and inactive calls. The rule behind the calls is not given here.

How the values were obtained:
Type in all cases: functional, organism-based
[1] = system: Pseudomonas putida; experiment: Inhibition of acyl-homoserinlactone-related quorum sensing activity in Pseudomonas putida F117 pAS-C8 at 0 to 1000 nM after 4 hrs by fluorescence assay
[2] = system: Myxococcus xanthus DK 1622; experiment: Inhibition of Myxococcus xanthus DK 1622 growth at 0.5 mg after 72 hrs by agar diffusion assay
[3] = system: Pseudomonas putida; experiment: Quorum sensing activity in Pseudomonas putida F117 pKR-C12 assessed as activation of acyl-homoserinlactone-related signaling at 10 ul after 24 hrs by thin-layer chromatography
[4] = system: Pseudomonas putida; experiment: Inhibition of acyl-homoserinlactone-related quorum sensing activity in Pseudomonas putida F117 pKR-C12 at 10 ul after 24 hrs by thin-layer chromatography
[5] = system: Chromobacterium violaceum; experiment: Inhibition of acyl-homoserinlactone-related quorum sensing activity in Chromobacterium violaceum at 0 to 1000 nM after 4 hrs by fluorescence assay
[6] = system: Escherichia coli; experiment: Inhibition of acyl-homoserinlactone-related quorum sensing activity in Escherichia coli MT102 harbouring pSB403 at 0 to 1000 nM after 4 hrs by fluorescence assay
[7] = system: Escherichia coli; experiment: Quorum sensing activity in Escherichia coli MT102 harbouring pSB403 assessed as activation of acyl-homoserinlactone-related signaling at 0 to 1000 nM after 4 hrs by fluorescence assay
[8] = system: Chromobacterium violaceum; experiment: Quorum sensing activity in Chromobacterium violaceum assessed as activation of acyl-homoserinlactone-related signaling at 0 to 1000 nM after 4 hrs by fluorescence assay
[9] = system: Pseudomonas putida; experiment: Quorum sensing activity in Pseudomonas putida F117 pAS-C8 assessed as activation of acyl-homoserinlactone-related signaling at 0 to 1000 nM after 4 hrs by fluorescence assay
[10] = system: Plasmodium falciparum; experiment: Antiplasmodial activity against Plasmodium falciparum
[11] = system: Aspergillus ruber; experiment: Antimicrobial activity against Eurotium rubrum at 50 ug/disk by disk diffusion assay
[12] = system: Mycotypha microspora; experiment: Antimicrobial activity against Mycotypha microspora at 50 ug/disk by disk diffusion assay
[13] = system: [Chlorella] fusca; experiment: Antimicrobial activity against Chlorella fusca at 50 ug/disk by disk diffusion assay; details: Scenedesmus fuscus
[14] = system: Microbotryum violaceum; experiment: Antimicrobial activity against Microbotryum violaceum at 50 ug/disk by disk diffusion assay
[15] = system: Priestia megaterium; experiment: Antimicrobial activity against Bacillus megaterium at 50 ug/disk by disk diffusion assay
[16] = system: Escherichia coli; experiment: Antimicrobial activity against Escherichia coli at 50 ug/disk by disk diffusion assay

IC50 [10]	Structure (SMILES)	Activity [1]	Activity [2]	Activity [3]	Activity [4]	Activity [5]	Activity [6]	Activity [7]	Activity [8]	Activity [9]	Activity [11]	Activity [12]	Activity [13]	Activity [14]	Activity [15]	Activity [16]
	CCCCCCCCCCCCC/C=C\C(=O)N/C=C\c1ccc(O[C@@H]2O[C@@H](C)[C@H](O)[C@@H](O)[C@H]2O)cc1	Active	inactive	inactive	Active	Active	Active	inactive	inactive	inactive						
7 µM	CC(C)CCCCCCCCCCC/C=C\C(=O)N/C=C\c1ccc(O[C@@H]2O[C@@H](C)[C@H](O)[C@@H](O)[C@H]2O)cc1 [MYXOTYROSIDE A]	Active	inactive	inactive	Active	Active	Active	inactive	inactive	inactive	inactive	inactive	inactive	inactive	inactive	inactive
